Results as given in a melting point compilation (Tetko et al.; mined from patent text by program, amines drawn as free bases though some values may be those of a salt).

| SMILES | melting point |
| --- | --- |
| CC(C)(C)OC(=O)COc1cc(NC(=O)OC(C)(C)C)c(NC(=O)CC(=O)c2cccc(C#N)c2)cc1C#Cc1ccccc1 | 95 °C |
| Cc1ccc2c(Cl)cc(C(=O)NCc3ccc(Cl)cc3)c(O)c2n1 | 128 to 130 °C |
| CNS(=O)(=O)Cc1ccc(NC(=O)C(F)(F)F)c(Br)c1 | 170 °C |
| Cc1ccn2c(C)c(CCc3ccc4nc(C)oc4c3)nc2c1 | 83 to 85 °C |
| CCOC(=O)CNc1ncccc1NC(=O)c1ccc(Cl)cc1 | 133 to 134 °C |
| CCOC(=O)c1ccc(NC(=O)NCCN2CCN=C2c2ccccn2)cc1 | 95 to 97 °C |
| Nc1nnc(-c2cc(F)c(F)c(F)c2O)s1 | 309 °C |
| Cc1ccccc1Nc1cccc(-c2ccccc2)c1CN | 103 to 105 °C |
| CCN(CC)C(=O)Oc1cc(-c2cccc(C(F)(F)F)c2)nc2ccccc12 | 96 °C |
| CCOC(=O)Cc1c2ccccc2n2c(-c3cccs3)nccc12 | 94 to 95 °C |
| CC(C)CCS(=O)(=O)NC(=O)CCc1cc(C2CC2)nn1Cc1ccc(C(F)(F)F)cc1Cl | 160 to 162 °C |
| Cc1ccn2ncc(C(=O)Nc3cc(Cl)ccc3OC3CCC(O)CC3)c2n1 (stereo unspecified) | 179 to 182 °C |
| CN(CCOc1cc(-c2ccc(O)cc2)nn1C)CCc1ccc(Cl)cc1 | 90 to 91 °C |
| N#Cc1cc(F)c(-c2ncnc(C(F)(F)F)c2Cl)cc1[N+](=O)[O-] | 90 to 92 °C |
| CCCCc1nc2c(n1Cc1ccc(-c3ccccc3S(=O)(=O)NC(=O)NCCC)cc1)C(=NO)CCS2 | 178 °C |
| CCOc1ccccc1COc1ccc2c(c1)C=C(C(=O)Nc1ccc(CN(C)C3CCOCC3)cc1)CCS2(=O)=O | 211 to 214 °C |
| COc1cc2c(cc1O)CCN(C(=O)c1ccc(C#N)cc1)C2=O | 198 to 199 °C |
| CCOC(=O)C(C)c1ccc2nc(-c3ccccc3)oc2c1 (stereo unspecified) | 46 °C |
| O=C(O)c1ccc(Cl)c(NC(=O)C(CS)Cc2ccccc2)c1 (stereo unspecified) | 189 to 191 °C |
| COP(=O)(Cc1ccc(NC(=O)/C=C/c2cnn(C)c2-c2ccc(F)cc2)cc1)OC | 209 to 210 °C |
| CON1C=C2N=NC3=C(N(CC(C)C)CC(C)=C3)N2C1 | 144 to 145 °C |
| CNC(=O)[C@@H]1CSCc2c(O)cc(O)c(C)c2C(=O)OC[C@H](O)C(=O)N1 | 275 °C |
| COC(=O)C1=NNC(C)=C(C(=O)OC)C1c1ccccc1C(F)(F)F (stereo unspecified) | 205 °C |
| CC(C)NC(=O)N1CCC(F)(Cc2c3c(nn2C)c(N)nc2ccccc23)CC1 | 241 to 244 °C |
| O=C1N[C@H](Cc2cccc(OC(F)(F)C(F)F)c2)[C@H](c2cccc(F)n2)O1 (racemic) | 118 to 119 °C |
| Cc1n[nH]c(-c2ccc(Br)cc2)c1NC(=O)c1cccnc1 | 262 to 264 °C |

| SMILES | melting point |
| --- | --- |
| COC(=O)Cn1c(=O)n(C)c(=O)n(-c2cc(F)ccc2[N+](=O)[O-])c1=O | 122 °C |
| CON=C(c1ccccc1COc1cccc(Cl)c1)n1ccnc1 | 96.5 to 97.5 °C |
| COCCCNC(=O)c1ccc(C(=O)N2CCN(c3ncccc3NC(C)C)CC2)nc1 | 95 to 96 °C |
| COc1cc(OC)c2c(C)c(CCN3CCN(c4ccccc4OC)CC3)c(=O)oc2c1 | 140 to 142 °C |
| O=C(O)CC1CCOc2ccc(Cl)cc21 (stereo unspecified) | 115 to 117 °C |
| CCCCCC(O)C=Cc1scnc1CCCCCCC(=O)O (stereo unspecified) | 73 to 74 °C |
| Oc1ncnc2c(-c3ccc(Cc4ccc(Cl)cc4)cc3)cnn12 | 292 to 296 °C |
| NC(=O)C1(N2C(=O)c3cccc(Br)c3C2=O)CCCCC1 | 199 to 200 °C |
| CON(c1ccc([N+](=O)[O-])cc1[N+](=O)[O-])S(=O)(=O)c1cccc(Cl)c1 | 157 to 159 °C |
| Cc1oc(-c2ccc3ccccc3c2)nc1/C=C/c1ccc(C=O)cc1 | 162 to 163 °C |
| CCCCCCCCCCCCCCCCCCOc1ccc(O)c(C(=O)N(CC(=O)O)CC(=O)O)c1 | 128 to 132 °C |
| N#Cc1cc(I)c(I)[nH]1 | 211 to 213 °C |
| COc1cc2ncnc(Nc3cccc(Br)c3)c2cc1OC(C)=O | 238 °C |
| CCCCN(C1c2cc(OCc3ccccc3)ccc2OC(C)(C)C1O)S(C)(=O)=O (stereo unspecified) | 159 to 160 °C |
| NS(=O)(=O)c1cc2c(s1)S(=O)(=O)CC=C2 | 210 to 212 °C |
| CC(=O)SCC(C(=O)N1CCC(=C2c3ccc(Cl)cc3CCc3cccnc32)CC1)c1ccccc1 (stereo unspecified) | 92.7 to 93 °C |
| O=[N+]([O-])c1oc2ccccc2c1Br | 130 to 132 °C |
| CCCCCCCCCCCCCCCCCCN(C)[Si](C)(C)C | 35 to 40 °C |
| COC(=O)c1cccc2cc(-c3ccc(N)cc3)oc12 | 158 to 161 °C |
| CCCON1C(C)(C)CC(NC(=O)C2=C(c3ccccc3)C(c3ccccc3)OC2=O)CC1(C)C (stereo unspecified) | 79 to 85 °C |
| CCCOc1ccc(Cl)cc1C1=NC(=O)C2=NC=NC2=N1 | 277 to 279 °C |
| CCOc1ccc(Nc2ncccc2NS(=O)(=O)c2ccc(OC)cc2)cc1 | 144 to 146 °C |
| COC(=O)C1CC(C#N)(c2ccc(OC)c3c2OCCO3)CCC1=O (stereo unspecified) | 129 to 132 °C |
| CCCc1c(CC)[nH]c(C(=O)OCC)c1C | 86 to 87 °C |
| CCCn1c(COCC)nc2c(N)nc3cc(O)ccc3c21 | > 250 °C |
| Cc1cc(-n2ccnc2)c2cccc(OCc3c(Cl)ccc(S(=O)(=O)N4CCC[C@H]4C(=O)NCCCN(C)C)c3Cl)c2n1 | 80 °C |

| SMILES | melting point |
| --- | --- |
| CC1C=C(c2nnn[nH]2)CN(CC(=O)O)C1 (stereo unspecified) | 150 to 152 °C |
| COc1cc(C(=O)c2ccccc2[N+](=O)[O-])c(Br)cn1 | 128 to 131 °C |
| FC(F)(F)c1ccc(-c2ccc(Cl)nn2)cc1 | 186 to 188 °C |
| CCCCc1nnc(SCC(=O)OC)n1Cc1ccc(NC(=O)c2ccccc2C(=O)O)cc1 | 161 to 162 °C |
| Cc1oc2c(-c3ccc(F)cc3)c(-c3ccc(S(C)(=O)=O)cc3)nn2c1-c1cccs1 | 240 to 241 °C |
| CCCCC(=O)OCC(=O)C1(OC(C)=O)CCC2C3CC(C)C4=CC(=O)C=CC4(C)C3C(O)CC21C (stereo unspecified) | 148 to 150 °C |
| Clc1ccc(-c2c(Cc3nnn[nH]3)cnn2-c2ccccc2)cc1 | 230 to 232 °C |
| CCOC(=O)CCCC1CCN(CCOC(c2ccccc2)c2ccc(F)cc2)CC1 (stereo unspecified) | 119 to 120 °C |
| CC(C)(C)c1cc(C(=O)c2ccc(O)cc2)cc(C(C)(C)C)c1O | 188 to 190 °C |
| N#CC1CN(C(=O)[C@H](NC(=O)c2c[nH]c3ncc(-c4ccc(C(F)(F)F)cc4)nc23)C2CC2)C1 | 207 to 209 °C |
| OCc1ccc(OCc2ccc3ccccc3n2)cc1 | 131 to 135 °C |
| CC1OC(n2cnc(C(N)=O)c2CC#N)C(O)C1O (stereo unspecified) | 173 to 174 °C |
| CNC(C)CN1CCc2c(c(=O)oc3cc(C)c(NC(C)=O)cc23)C1 (stereo unspecified) | 187 to 188 °C |
| Cc1ccc(-c2ccnc3c(C(=O)c4cccs4)cnn23)cc1NC(=O)NC(C)C | 225 to 227 °C |
| COc1ccc2cc(-c3ccc(OCC(O)CNC(C)C)c(OC)c3)n(C)c(=O)c2c1 (stereo unspecified) | 144 to 146 °C |
| C=CCOC(=O)NCc1noc([C@H](CS)NC(=O)OC(C)(C)C)n1 | 55 to 58 °C |
| COc1cc(O)c([N+](=O)[O-])cc1C(F)(F)F | 77 to 78 °C |
| Cc1nc2c3cccc(Cl)c3ccn2c1CC(N)=O | 284 to 286 °C |
| CN(C)Cc1ccc(-c2cc3onc(-c4ccccc4)c3c(=O)n2C)cc1 | 159 to 161 °C |
| CC(C)C(=O)NC1C(OCc2ccccc2)=CC=CC1(Br)[N+](=O)[O-] (stereo unspecified) | 197 to 198 °C |
| COc1c(C2CCN(CCCCNC(=O)c3oc(-c4ccc(C#N)cc4)nc3C)CC2)ccc2c1CCCC2 | 157 °C |
| O=C(C=Cc1ccc2c(c1)OCO2)c1cccc(O)c1 | 188 to 189 °C |
| BrCCCOc1ccc(OCCCBr)cc1 | 78 to 80 °C |
| Cc1ccc(C(=O)NCc2ccncc2)cc1 | 227 °C |
| O=c1c(C(F)(F)F)cn(C2CC(O)C(CO)O2)c(=O)n1C1CCCO1 (stereo unspecified) | 127 to 128 °C |
| C=COC(=O)N1C[C@@H]2SCCC(c3ccccc3)(c3ccccc3)[C@@H]2C1 (racemic) | 160 °C |

| SMILES | melting point |
| --- | --- |
| O=S(=O)(F)c1cc(S(=O)(=O)F)cc(S(=O)(=O)F)c1 | 166 to 168 °C |
| CC(C)(C)c1ccc(C(O)(c2ccccc2)c2ncc[nH]2)cc1 (stereo unspecified) | 166 °C |
| Cc1cccc2cc3c(=O)n(CCCN4CCCC4=O)cc(C(=O)NCCN(C)C)c3nc12 | 170 to 171 °C |
| COC(OC)c1cc(-n2c(=O)cc(C(F)(F)F)n(C)c2=O)ccc1Cl | 92 to 94 °C |
| COc1cc2ncc(C#N)c(Sc3cccc(Br)c3)c2cc1OC | 173 to 175 °C |
| CNC(=O)ON=C1N=C(C)C(C)(C)S1 | 123 to 125 °C |
| Fc1cc(-c2cc(C(F)(F)F)n3ncc(-c4cccnc4)c3n2)ccc1C(F)(F)F | 162 °C |
| Cc1ccc(-c2nc3n(n2)Cc2ccccc2-3)cc1 | 207 to 208 °C |
| CC(C)(C)OC(=O)NCc1ccc(-c2ccc(O)c(Br)c2)cc1 | 113 to 117 °C |
| Cc1cccc(C)c1NC(=O)C(Cl)Br (stereo unspecified) | 148 to 149 °C |
| O=C1c2c(O)cc(O)cc2OC(c2ccc(O)cc2)C1O (stereo unspecified) | 221 to 223 °C |
| CC(C)c1cccc(C(C)C)c1NC(=O)NCC1(O)CCCc2ccccc21 (stereo unspecified) | 170 to 171 °C |
| CC(=O)OCC(=O)C1(O)C(C)CC2C3CCC4=CC(=O)C=CC4(C)C3=CCC21C (stereo unspecified) | 202 to 205 °C |
| O=C(O)c1ccc(-c2n[nH]c3c2Cc2ccccc2-3)cc1 | > 320 °C |
| CCNC1=NS(=O)(=O)c2cccc(F)c21 | 236 to 238 °C |
| Nc1cc(=O)n(Cc2cc(Cl)ccc2F)[nH]1 | 160 °C |
| N#Cc1cc(NC(=O)c2ccn(-c3ccc(Cl)cc3)c2)ccc1N1CCN(C2CCOCC2)CC1 | 224 °C |
| CCCN(CCC)c1nc2c(Cl)nccc2c(=O)[nH]1 | 180 °C |
| COC(=O)c1ccc(C#N)cc1Cl | 90 to 92 °C |
| Nc1ccc(S(=O)(=O)Nc2cc(N)cc(N)c2)cc1 | 188 to 190 °C |
| CC1(C)OC(=O)Nc2ccc(-c3ccc(C#N)s3)cc21 | 264 to 266 °C |
| CCCCCOc1ccc(C=O)cc1OCCCCC | 31 to 32.5 °C |
| CCCCC1(C2CCCC2)Cc2cc(O)c(Cl)c(Cl)c2C1=O (stereo unspecified) | 160 °C |
